Values of other authors in patent publication US10665326B2, “Deep proteome markers of human biological aging and methods of determining a biological aging clock” (INSILICO MEDICINE, INC., priority 2017, dated 2020).

Legend:
[1] = test system: pre-senescent and senescent cells

Compound: 740 Y-P
- mitogenic response (muscle cells): stimulates a mitogenic response

Compound: O=c1c(O)c(-c2ccc(O)c(O)c2)oc2cc(O)cc(O)c12 [quercetin]
- killing of pre-senescent and senescent cells [1]: able to kill pre-senescent and senescent cells

Compound: Tocotrienols
- killing of pre-senescent and senescent cells [1]: able to kill pre-senescent and senescent cells
